The text below walks through data of patent publication EP2945948B1, “CRYSTALLINE FORM II OF ANAGRELIDE HYDROCHLORIDE MONOHYDRATE” (Synthon BV, priority 2013, dated 2014).

A short description of data set [1]: Stability of form II: suspension stirred in solvent, solid analysed by XRPD. The data set is classed as physicochemical. As to the method:
2.0 g of anagrelide hydrochloride monohydrate form II was suspended in 20 ml solvent. […] At certain time points, a small amount of the suspension was filtered over a P3-glass filter (reduced pressure). The solids were air-dried overnight at RT.
(§1) In the above examples, the XRPD patterns were recorded on a Bruker-AXS D8 vario (Θ/2Θ geometry, reflection mode, Vantec PSD detector) operating at the following settings: […]

For data set [2] the following is noted: cited from earlier work.
A short description of data set [3]: Conversion study in ethanol at specified stirring temperature, XRPD. In kind it is physicochemical. As to conditions: for Crystal form (XRPD): ethanol, stirring time 2 hours only. As to the method: The suspension was filtered over a P3-glass filter (reduced pressure), washed with solvent and dried.
as §1

A short description of data set [4]: Stability of form I: suspension stirred in solvent, solid analysed by XRPD. To be noted: RT. The data set is classed as physicochemical. As to the method:
[…] The suspension was filtered over a P3-glass filter (reduced pressure), washed with solvent and dried.
as §1

Data set [5] in a line: Polymorphic stability on exposure to air / air-drying. The data set is classed as physicochemical.
Data set [6] can be described thus: Instant solubility in buffers, Milli-Q water and 0.1 M HCl (HPLC-UV). In kind it is physicochemical. To be noted: USP acetate buffer pH 4.5, USP phosphate buffer pH 6.8, Milli-Q water and 0.1 M HCl; room temperature; 0-60 minutes; Figure 5; hydrochloride monohydrate. As to the method: The instant solubility of anagrelide hydrochloride monohydrate form II, form I and free base was determined in USP acetate buffer pH 4.5, USP phosphate buffer pH 6.8, Milli-Q water (herein below "MQ") and 0.1 M HCl. About 30 mg of the drug substance was transferred into a clear 50 ml sample jar and a stirring bar was added. Subsequently 30 ml of test medium was added; the vial was closed and placed on a magnetic stirrer. Under constant stirring at room temperature samples of 2 ml were taken at t=0, 10, 20, 30, 40, 50, and 60 minutes. The samples were immediately filtered through a 0.45 µm syringe disk filter (first ml was discarded) and analyzed at once with the HPLC-UV method described in Table 1. The solubility was calculated in mg/ml anagrelide free base against an external standard (AGL.hcl.mhy.120310) dissolved in acetonitrile/milli-Q (ACN/MQ) (50:50). Table 1 HPLC-UV parameters used for instant solubility testing

Entries after “also recorded” stand apart in the source; their conditions may differ. Where a name gives a salt, the structure may show the parent alone.

As for `O=C1CN2Cc3c(ccc(Cl)c3Cl)N=C2N1` [Anagrelide hydrochloride monohydrate], the “converts into anagrelide free base” value in data set [1] (in water) was in the range of 30 to 180 min. In addition, the solubility in water result in data set [2] is recorded as “very slightly soluble”.
Regarding `Cl.O.O=C1CN2Cc3c(ccc(Cl)c3Cl)N=C2N1` [anagrelide hydrochloride monohydrate], the “Crystal form (XRPD)” value was “I + II” in data set [3] (stirring temperature 72.5 °C) and “mostly I, some II left” in data set [3] (stirring temperature 75 °C).
With `O=C1CN2Cc3c(ccc(Cl)c3Cl)N=C2N1` [form I, anagrelide hydrochloride monohydrate], the XRPD entry is listed as “Form I + II” in data set [4] (2-propanol, 16 hours); “Form II” in data set [4] (Acetone, 2 days); “Anagrelide base” in data set [4] (Demi-water, 30 min); “Anagrelide base” in data set [4] (Demi-water, 180 min); “Form II” in data set [4] (Ethanol, 30 min); “Form II” in data set [4] (Ethanol, 16 hours). Moreover, the XRPD result in data set [4] (Ethyl acetate, 2 days) is reported as “Form II”.
For `O=C1CN2Cc3c(ccc(Cl)c3Cl)N=C2N1` [form II, anagrelide hydrochloride monohydrate], the XRPD entry in data set [1] (2-propanol, 30 min, RT) is “Form II”; in data set [1] (2-propanol, 60 min, RT), “Form II”; in data set [1] (2-propanol, 120 min, RT), “Form II”; in data set [1] (2-propanol, overnight, RT), “Form II”; in data set [1] (Demi-water, 30 min, RT), “Form II + anagrelide base”; in data set [1] (Demi-water, 60 min, RT) it was “Form II + anagrelide base”. The XRPD result in data set [1] (Demi-water, 120 min, RT) is given as “Form II + anagrelide base”; in data set [1] (Demi-water, 180 min, RT), “Anagrelide base”; in data set [1] (Ethanol, 30 min, RT) it was “Form II”; in data set [1] (Ethanol, 60 min, RT) it was “Form II”; in data set [1] (Ethanol, 120 min, RT) it was “Form II”; in data set [1] (Ethanol, 3 hours, reflux) it was “Form I”. Besides, in data set [1] (Ethanol, overnight, RT), the XRPD result is listed as “Form II”. In data set [1] (ambient temperature, ethanol, 2-propanol, acetone, ethyl acetate, compared with form I), the polymorphic stability result is “polymorphically stable at ambient temperature and even more stable than form I”. Besides, in data set [1] (stirred in demi-water for up to 180 minutes, compared with form I), the “stability against aqueous hydrolysis” value is “more stable against aqueous hydrolysis than form I”. Further, the “polymorphic change on air-drying” value in data set [5] (air-drying at ambient temperature) is reported as “does not cause any polymorphic change”. Further, in data set [3] (form II / form I, suspension in ethanol), the transition point entry was “around 72.5 °C”. For the same compound, in data set [3] (suspension in ethanol), the stable at temperatures entry is “below 70 °C”. In data set [6], the “instant solubility compared to form I” value is “more soluble; also recorded: higher”.
For the compound `O=C1CN2Cc3c(ccc(Cl)c3Cl)N=C2N1` [form III, anagrelide hydrochloride monohydrate], in data set [5] (exposed to air), the “stability when exposed to air” value was “converts into form I or a mixture of forms I and II”.
